The values that follow come from US20250171432A1, “COMPOUNDS AND METHODS OF USE” (Tango Therapeutics, Inc., priority 2022, published 2025).

What all share (format): cell-based
Assay [1] has as its system SDMA (PRMT5 activity) in HAP1 MTAP-intact cell line. The assay is described as follows: SDMA in-cell western assay, HAP1 MTAP-intact. Conditions: SDMA in-cell western, HAP1 MTAP-intact cells, 24 hours compound incubation.
The subject of assay [2] is SDMA (PRMT5 activity) in HAP1 MTAP-deleted cell line. The assay is described as follows: SDMA in-cell western assay, HAP1 MTAP-deleted. Conditions: for IC50 / IC90: SDMA in-cell western, HAP1 MTAP-deleted cells, 24 hours compound incubation; for Hap1 MTAP intact/deleted ratio: ratio of SDMA IC50 in HAP1 MTAP-intact to HAP1 MTAP-deleted cell line.
The subject of assay [3] is HAP1 MTAP-deleted cell line. As to the kind of experiment: Viability assay (CellTiter-Glo), HAP1 MTAP-deleted. The following applies: HAP1 MTAP-deleted cells, 7 days. The essentials:
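HAP1 MTAP-deleted and MTAP-intact cells seeded, then dosed next day (n=3, 0.2% DMSO) and grown 7 days. Viability by CellTiter-Glo luminescence, expressed as % of DMSO control per cell line.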
(In general: ATP-based viability assays read luminescence as a measure of living cells.)

One may read the IC50 as the concentration needed to halve the response being measured. Lower therefore signals greater potency in that assay. A word on the IC90: it is the point of the concentration-response curve where the effect stands at 90%. Turning to `CCc1cc(NC(=O)C(=O)N2C[C@@H](C)CC[C@@H]2c2ccc3sc([C@@H]4C[C@@H](C)CN(C)C4)nc3c2)cnc1N` (relative stereo) [Compound 23, N-(6-amino-5-ethylpyridin-3-yl)-2-((2R,5S)-2-(2-(1,5-dimethylpiperidin-3-yl)benzo[d]thiazol-5-yl)-5-methylpiperidin-1-yl)-2-oxoacetamide], the IC50 in assay [1] (Homo sapiens, HAP1, 24 h) is 5 to 50 nM; in assay [2] (Homo sapiens) it was below 5 nM; in assay [3] (Homo sapiens, 168 h), below 100 nM. The IC90 in assay [2] (Homo sapiens) is below 75 nM. For the same compound, the “Hap1 MTAP intact/deleted ratio” value in assay [2] is given as “B (“B” indicates an IC50 ratio greater than or equal to 15 fold but lower than 30 fold)”.

`CCc1cc(NC(=O)C(=O)N2C[C@@H](C)CC[C@@H]2c2ccc3sc(C4CN(C)CCN4C)nc3c2)cnc1N` (mixture of isomers) [Compound 70, N-(6-amino-5-ethylpyridin-3-yl)-2-((2R,5S)-2-(2-(1,4-dimethylpiperazin-2-yl)benzo[d]thiazol-5-yl)-5-methylpiperidin-1-yl)-2-oxoacetamide]: the concentration for half-maximal inhibition (IC50) in assay [1] (Homo sapiens, HAP1, 24 h) was above 50 nM; in assay [2] (Homo sapiens) it was 5 to 50 nM; in assay [3] (Homo sapiens, 168 h), below 100 nM. The compound further returned an IC90 in assay [2] (Homo sapiens) below 75 nM. Further, the “Hap1 MTAP intact/deleted ratio” value in assay [2] was “B (“B” indicates an IC50 ratio greater than or equal to 15 fold but lower than 30 fold)”.

Turning to `CCc1cc(NC(=O)C(=O)N2C[C@H](C)CC[C@@H]2c2ccc3sc([C@H]4C[C@H](N(C)C)C4)nc3c2)cnc1N` [Compound 119, N-(6-amino-5-ethyl-3-pyridyl)-2-oxo-2-[(2R,5R)-2-[2-[3-(dimethylamino)cyclobutyl]-1,3-benzothiazol-5-yl]-5-methyl-1-piperidyl]acetamide], the IC50 in assay [1] (Homo sapiens, HAP1, 24 h) is above 50 nM; in assay [2] (Homo sapiens), above 50 nM; in assay [3] (Homo sapiens, 168 h), above 1000 nM. In addition, the IC90 in assay [2] (Homo sapiens) was above 125 nM. In assay [2], the “Hap1 MTAP intact/deleted ratio” value was “C (“C” indicates an IC50 ratio of less than 15 fold)”.

In the case of `COc1ncc(NC(=O)C(=O)N2C[C@@H](C)CC[C@@H]2c2ccc3sc([C@H]4CCN(C)C[C@@H]4OC)nc3c2)cc1C(N)=O` (single isomer, unassigned) [Compound 35], the IC50 in assay [1] (Homo sapiens, HAP1, 24 h) is above 50 nM; in assay [2] (Homo sapiens) it was below 5 nM; in assay [3] (Homo sapiens, 168 h), below 100 nM. This compound had an IC90 in assay [2] (Homo sapiens) below 75 nM. In addition, the “Hap1 MTAP intact/deleted ratio” value in assay [2] is “A (“A” indicates an IC50 ratio greater than or equal to 30 fold)”.

For `COc1ncc(NC(=O)C(=O)N2C[C@@H](C)CC[C@@H]2c2ccc3sc(C4CCN(C)C4(C)C)nc3c2)cc1C(N)=O` (mixture of isomers) [Compound 87, 2-methoxy-5-(2-((2R,5S)-5-methyl-2-(2-(rac-(S)-1,2,2-trimethylpyrrolidin-3-yl)benzo[d]thiazol-5-yl)piperidin-1-yl)-2-oxoacetamido)nicotinamide], the half-maximal inhibitory concentration (IC50) in assay [1] (Homo sapiens, HAP1, 24 h) was above 50 nM; in assay [2] (Homo sapiens), below 5 nM; in assay [3] (Homo sapiens, 168 h), below 100 nM. The compound further registered an IC90 in assay [2] (Homo sapiens) below 75 nM. The “Hap1 MTAP intact/deleted ratio” value in assay [2] was “A (“A” indicates an IC50 ratio greater than or equal to 30 fold)”.

Take `COc1ncc(NC(=O)C(=O)N2C[C@@H](C)CC[C@@H]2c2ccc3ccc(N4CCN(C)CC4)nc3c2)cc1C(N)=O` [Compound 126, 2-methoxy-5-(2-((2R,5S)-5-methyl-2-(2-(4-methylpiperazin-1-yl)quinolin-7-yl)piperidin-1-yl)-2-oxoacetamido)nicotinamide]: the IC50 in assay [1] (Homo sapiens, HAP1, 24 h) is above 50 nM; in assay [2] (Homo sapiens), below 5 nM; in assay [3] (Homo sapiens, 168 h) it was below 100 nM. The IC90 in assay [2] (Homo sapiens) is below 75 nM. In addition, in assay [2], the “Hap1 MTAP intact/deleted ratio” value is given as “A (“A” indicates an IC50 ratio greater than or equal to 30 fold)”.

For the compound `COc1ncc(NC(=O)C(=O)N2C[C@@H](C)CC[C@@H]2c2ccc3sc([C@H](C)CN4CCCC4)nc3c2)cc1C(N)=O` [Compound 15, 2-methoxy-5-[[2-oxo-2-[(2R,5S)-5-methyl-2-[2-[(1R)-1-methyl-2-pyrrolidin-1-yl-ethyl]-1,3-benzothiazol-5-yl]-1-piperidyl]acetyl]amino]pyridine-3-carboxamide], the IC50 was above 50 nM in assay [1] (Homo sapiens, HAP1, 24 h); below 5 nM in assay [2] (Homo sapiens); below 100 nM in assay [3] (Homo sapiens, 168 h). The compound also gave an IC90 in assay [2] (Homo sapiens) below 75 nM. Besides, in assay [2], the “Hap1 MTAP intact/deleted ratio” value is reported as “B (“B” indicates an IC50 ratio greater than or equal to 15 fold but lower than 30 fold)”.

For `CCc1cc(NC(=O)C(=O)N2C[C@@H](C)CC[C@@H]2c2ccc3cc(C#N)cnc3c2)cnc1N` [Compound 54], the IC50 in assay [1] (Homo sapiens, HAP1, 24 h) was above 50 nM; in assay [2] (Homo sapiens), 5 to 50 nM; in assay [3] (Homo sapiens, 168 h), 100 to 1000 nM. Further, the IC90 in assay [2] (Homo sapiens) is above 125 nM. Further, the “Hap1 MTAP intact/deleted ratio” value in assay [2] is “A (“A” indicates an IC50 ratio greater than or equal to 30 fold)”.

For the compound `CCc1cc(NC(=O)C(=O)N2C[C@@H](C)CC[C@@H]2c2ccc3sc([C@H]4C[C@H](C)CN(C)C4)nc3c2)cnc1N` (single isomer, unassigned) [Compound 75], the IC50 in assay [1] (Homo sapiens, HAP1, 24 h) was above 50 nM; in assay [2] (Homo sapiens), 5 to 50 nM; in assay [3] (Homo sapiens, 168 h) it was below 100 nM. Moreover, the IC90 in assay [2] (Homo sapiens) is below 75 nM. Further, the “Hap1 MTAP intact/deleted ratio” value in assay [2] is given as “B (“B” indicates an IC50 ratio greater than or equal to 15 fold but lower than 30 fold)”.

Turning to `C[C@H]1CC[C@H](c2ccc3scnc3c2)N(C(=O)C(=O)Nc2cnc(N)c(I)c2)C1` [Compound 51, N-(6-amino-5-iodopyridin-3-yl)-2-((2R,5S)-2-(benzo[d]thiazol-5-yl)-5-methylpiperidin-1-yl)-2-oxoacetamide], the IC50 in assay [1] (Homo sapiens) is above 50 nM; in assay [2] (Homo sapiens) it was below 5 nM; in assay [3] (Homo sapiens, 168 h), 100 to 1000 nM. In assay [2] (Homo sapiens), this compound came in with an IC90 of 75 to 125 nM. Moreover, the “Hap1 MTAP intact/deleted ratio” value in assay [2] is given as “A (“A” indicates an IC50 ratio greater than or equal to 30 fold)”.

Regarding `CCc1cc(NC(=O)C(=O)N2C[C@@H](C)CC[C@@H]2c2ccc3oc(C4CCN(C)CC4)nc3c2)cnc1N` [Compound 53, N-(6-amino-5-ethylpyridin-3-yl)-2-((2R,5S)-5-methyl-2-(2-(1-methylpiperidin-4-yl)benzo[d]oxazol-5-yl)piperidin-1-yl)-2-oxoacetamide], the IC50 is above 50 nM in assay [1] (Homo sapiens); below 5 nM in assay [2] (Homo sapiens); below 100 nM in assay [3] (Homo sapiens, 168 h). This compound gave an IC90 in assay [2] (Homo sapiens) below 75 nM. For the same compound, the “Hap1 MTAP intact/deleted ratio” value in assay [2] is listed as “A (“A” indicates an IC50 ratio greater than or equal to 30 fold)”.

In the case of `CCc1cc(NC(=O)C(=O)N2C[C@@H](C)CC[C@@H]2c2ccc3cn(C4CCN(C)C(C)(C)C4)nc3c2)cnc1N` (single isomer, unassigned) [Compound 115], the IC50 in assay [1] is 5 to 50 nM; in assay [2], below 5 nM; in assay [3], below 100 nM. In assay [2], this compound gave an IC90 below 75 nM.

On to `CCc1cc(NC(=O)C(=O)N2C[C@@H](C)CC[C@@H]2c2ccc3cn(CCN(C)C)nc3c2)cnc1N` [Compound 38, N-(6-amino-5-ethyl-3-pyridyl)-2-oxo-2-[(2R,5S)-2-[2-[2-(dimethylamino)ethyl]indazol-6-yl]-5-methyl-1-piperidyl]acetamide], for which the IC50 in assay [1] (Homo sapiens, HAP1, 24 h) was above 50 nM; in assay [2] (Homo sapiens), below 5 nM; in assay [3] (Homo sapiens, 168 h), below 100 nM. Further, in assay [2] (Homo sapiens), the IC90 was below 75 nM. In addition, the “Hap1 MTAP intact/deleted ratio” value in assay [2] is “B (“B” indicates an IC50 ratio greater than or equal to 15 fold but lower than 30 fold)”.

As to `CCc1cc(NC(=O)C(=O)N2C[C@@H](C)CC[C@@H]2c2ccc3sc(CC(C)N4CCCC4)nc3c2)cnc1N` (mixture of isomers) [Compound 116, N-(6-amino-5-ethylpyridin-3-yl)-2-((2R,5S)-5-methyl-2-(2-(2-(pyrrolidin-1-yl)propyl)benzo[d]thiazol-5-yl)piperidin-1-yl)-2-oxoacetamide], the IC50 is above 50 nM in assay [1] (Homo sapiens, HAP1, 24 h); below 5 nM in assay [2] (Homo sapiens); below 100 nM in assay [3] (Homo sapiens, 168 h). The same compound came in with an IC90 in assay [2] (Homo sapiens) below 75 nM. The “Hap1 MTAP intact/deleted ratio” value in assay [2] is recorded as “A (“A” indicates an IC50 ratio greater than or equal to 30 fold)”.

As for `CCc1cc(NC(=O)C(=O)N2C[C@@H](C)CC[C@@H]2c2ccc3sc([C@H]4CN(C)CC(C)(C)C4)nc3c2)cnc1N` (single isomer, unassigned) [Compound 45], the IC50 in assay [1] (Homo sapiens, HAP1, 24 h) was 5 to 50 nM; in assay [2] (Homo sapiens), below 5 nM; in assay [3] (Homo sapiens, 168 h) it was below 100 nM. In assay [2] (Homo sapiens), the IC90 was below 75 nM. For the same compound, the “Hap1 MTAP intact/deleted ratio” value in assay [2] is “B (“B” indicates an IC50 ratio greater than or equal to 15 fold but lower than 30 fold)”.

For `COc1ncc(NC(=O)C(=O)N2C[C@@H](C)CC[C@@H]2c2ccc3sc([C@]45CCC(C4)N(C)C5)nc3c2)cc1C(N)=O` [Compound 71, 2-methoxy-5-(2-((2R,5S)-5-methyl-2-(2-((4R)-2-methyl-2-azabicyclo[2.2.1]heptan-4-yl)benzo[d]thiazol-5-yl)piperidin-1-yl)-2-oxoacetamido)nicotinamide], the IC50 was above 50 nM in assay [1] (Homo sapiens, HAP1, 24 h); below 5 nM in assay [2] (Homo sapiens); below 100 nM in assay [3] (Homo sapiens, 168 h). Moreover, the IC90 in assay [2] (Homo sapiens) was below 75 nM. In addition, in assay [2], the “Hap1 MTAP intact/deleted ratio” value was “B (“B” indicates an IC50 ratio greater than or equal to 15 fold but lower than 30 fold)”.

Regarding `COc1ncc(NC(=O)C(=O)N2C[C@@H](C)CC[C@@H]2c2ccc3cn(CCN(C)C)nc3c2)cc1C(N)=O` [Compound 7, 2-methoxy-5-[[2-oxo-2-[(2R,5S)-2-[2-[2-(dimethylamino)ethyl]indazol-6-yl]-5-methyl-1-piperidyl]acetyl]amino]pyridine-3-carboxamide], the IC50 in assay [1] (Homo sapiens, HAP1, 24 h) is above 50 nM; in assay [2] (Homo sapiens), 5 to 50 nM; in assay [3] (Homo sapiens, 168 h) it was below 100 nM. This compound also registered an IC90 in assay [2] (Homo sapiens) below 75 nM. Also, the “Hap1 MTAP intact/deleted ratio” value in assay [2] was “A (“A” indicates an IC50 ratio greater than or equal to 30 fold)”.
